Assay results as given in patent US20110046187A1, “ASSESSING CONGESTIVE HEART RISK IN PATIENTS TREATED OR POTENTIALLY TO BE TREATED WITH A PEROXISOME-PROLIFERATOR-ACTIVATOR-RECEPTOR-GAMMA AGONIST OR A THIAZOLIDINEDIONE” (BG MEDICINE, INC., priority 2007, published 2011).
Counter-ions that a name gives are not always drawn.

What was measured:
Type in all cases: in vivo
Galectin-3 mRNA = assay: Transcriptional profiling (Affymetrix GeneChip) of Galectin-3 mRNA levels in mouse T2DM animal models (db/db and HFD); design: key to Direction & Significance, Galectin-3 mRNA: Significant difference between the Group A and Group B median values for Galectin-3 mRNA; NS: No Significant Difference based on statistical comparison of Galectin-3 mRNA values in Group A and Group B; conditions: for Direction & Significance, Galectin-3 mRNA / MFC (median fold change) Galectin-3 mRNA: drug/Disease (vehicle), Day 14; for MFC (median fold change) Galectin-3 mRNA: oral twice/day 14 days; for Effect on Gal-3 mRNA levels in adipose tissue, muscle or liver: mouse models of T2DM (text summary of Table 1)
BNP mRNA [1] = assay: Transcriptional profiling (Affymetrix GeneChip) of BNP mRNA levels in mouse T2DM animal models (db/db and HFD); design: key to Direction & Significance, BNP mRNA: Significant difference between the Group A and Group B median values for BNP mRNA; NS: No Significant Difference based on statistical comparison of Galectin-3 mRNA values in Group A and Group B; conditions: drug/Disease (vehicle); for MFC (median fold change) BNP mRNA: oral twice/day 14 days; for Direction & Significance, BNP mRNA: Day 14
BNP mRNA [2] = assay: BNP mRNA level in muscle, Clinical, Rosi/Placebo
[3] = Adipose, HFD-06 high fat diet mouse
[4] = Liver, HFD-06 high fat diet mouse
[5] = Muscle, HFD-06 high fat diet mouse
[6] = Adipose, HFD-07 high fat diet mouse
[7] = Liver, HFD-07 high fat diet mouse
[8] = Muscle, HFD-07 high fat diet mouse

SMILES	Direction & Significance, Galectin-3 mRNA (Galectin-3 mRNA; Adipose, DB-07 db/db mouse)	MFC (median fold change) Galectin-3 mRNA (Galectin-3 mRNA; Adipose, DB-07 db/db mouse)	Direction & Significance, Galectin-3 mRNA (Galectin-3 mRNA; [3])	MFC (median fold change) Galectin-3 mRNA (Galectin-3 mRNA; [3])	Direction & Significance, Galectin-3 mRNA (Galectin-3 mRNA; Liver, DB-07 db/db mouse)	MFC (median fold change) Galectin-3 mRNA (Galectin-3 mRNA; Liver, DB-07 db/db mouse)	Direction & Significance, Galectin-3 mRNA (Galectin-3 mRNA; [4])	MFC (median fold change) Galectin-3 mRNA (Galectin-3 mRNA; [4])	Direction & Significance, Galectin-3 mRNA (Galectin-3 mRNA; Muscle, DB-07 db/db mouse)	MFC (median fold change) Galectin-3 mRNA (Galectin-3 mRNA; Muscle, DB-07 db/db mouse)	Direction & Significance, Galectin-3 mRNA (Galectin-3 mRNA; [5])	MFC (median fold change) Galectin-3 mRNA (Galectin-3 mRNA; [5])	Effect on Gal-3 mRNA levels in adipose tissue, muscle or liver (Galectin-3 mRNA)	MFC (median fold change) BNP mRNA (BNP mRNA [1]; Adipose, DB-07 db/db mouse)	MFC (median fold change) BNP mRNA (BNP mRNA [1]; [3])	Direction & Significance, BNP mRNA (BNP mRNA [1]; Adipose, DB-07 db/db mouse)	Direction & Significance, BNP mRNA (BNP mRNA [1]; [3])	MFC (median fold change) BNP mRNA (BNP mRNA [1]; Liver, DB-07 db/db mouse)	MFC (median fold change) BNP mRNA (BNP mRNA [1]; [4])	Direction & Significance, BNP mRNA (BNP mRNA [1]; Liver, DB-07 db/db mouse)	other results
COc1ccc(Cl)cc1C(=O)NCCc1ccc(S(=O)(=O)NC(=O)NC2CCCCC2)cc1 [Glyburide, glyburide]	Increase NS	1.10	Increase NS	1.04	Increase NS	1.01	Increase NS	1.02	Increase NS	1.19	Decrease NS	0.87	Neither glyburide nor metformin treatment of the mouse models of T2DM had any significant effect	1.02	1.16	Increase NS	Increase NS	0.85	0.93	Decrease NS	Direction & Significance, BNP mRNA (BNP mRNA [1]; [4]): Decrease NS; MFC (median fold change) BNP mRNA (BNP mRNA [1]; Muscle, DB-07 db/db mouse): 0.83; MFC (median fold change) BNP mRNA (BNP mRNA [1]; [5]): 3.17; Direction & Significance, BNP mRNA (BNP mRNA [1]; Muscle, DB-07 db/db mouse): Decrease NS; Direction & Significance, BNP mRNA (BNP mRNA [1]; [5]): Increase NS
CN(C)C(=N)N=C(N)N [Metformin, metformin]	Increase NS	1.10	Increase NS	1.08	Increase NS	1.06	Increase NS	1.08	Decrease NS	0.90	Decrease NS	0.82	Neither glyburide nor metformin treatment of the mouse models of T2DM had any significant effect	0.87	0.67	Decrease NS	Decrease NS	0.88	1.03	Decrease NS	Direction & Significance, BNP mRNA (BNP mRNA [1]; [4]): Increase NS; MFC (median fold change) BNP mRNA (BNP mRNA [1]; Muscle, DB-07 db/db mouse): 1.09; MFC (median fold change) BNP mRNA (BNP mRNA [1]; [5]): 2.17; Direction & Significance, BNP mRNA (BNP mRNA [1]; Muscle, DB-07 db/db mouse): Increase NS; Direction & Significance, BNP mRNA (BNP mRNA [1]; [5]): Increase NS
CN(CCOc1ccc(CC2SC(=O)NC2=O)cc1)c1ccccn1 (centres unmarked) [Rosi, rosiglitazone maleate]																					Direction & Significance, Galectin-3 mRNA (Galectin-3 mRNA; Adipose, DB-06 db/db mouse): Signif; MFC (median fold change) Galectin-3 mRNA (Galectin-3 mRNA; Adipose, DB-06 db/db mouse): 0.55; Direction & Significance, Galectin-3 mRNA (Galectin-3 mRNA; [6]): Signif; MFC (median fold change) Galectin-3 mRNA (Galectin-3 mRNA; [6]): 0.64; Direction & Significance, Galectin-3 mRNA (Galectin-3 mRNA; Liver, DB-06 db/db mouse): Signif; MFC (median fold change) Galectin-3 mRNA (Galectin-3 mRNA; Liver, DB-06 db/db mouse): 1.33; MFC (median fold change) Galectin-3 mRNA (Galectin-3 mRNA; [7]): 1.07; Direction & Significance, Galectin-3 mRNA (Galectin-3 mRNA; Muscle, DB-06 db/db mouse): Signif; MFC (median fold change) Galectin-3 mRNA (Galectin-3 mRNA; Muscle, DB-06 db/db mouse): 0.87; MFC (median fold change) Galectin-3 mRNA (Galectin-3 mRNA; [8]): 0.80; MFC (median fold change) BNP mRNA (BNP mRNA [1]; Adipose, DB-06 db/db mouse): 1.13; MFC (median fold change) BNP mRNA (BNP mRNA [1]; [6]): 1.29; Direction & Significance, BNP mRNA (BNP mRNA [1]; [6]): Signif; MFC (median fold change) BNP mRNA (BNP mRNA [1]; Liver, DB-06 db/db mouse): 1.68; MFC (median fold change) BNP mRNA (BNP mRNA [1]; [7]): 0.77; MFC (median fold change) BNP mRNA (BNP mRNA [1]; Muscle, DB-06 db/db mouse): 0.58; MFC (median fold change) BNP mRNA (BNP mRNA [1]; [8]): 1.40; MFC (median fold change) BNP mRNA (BNP mRNA [2]): 0.63
